Experimental data taken from patent US20250228239A1, “MOLECULES HAVING PESTICIDAL UTILITY, AND INTERMEDIATES, COMPOSITIONS, AND PROCESSES, RELATED THERETO” (priority 2024, published 2025).

Assays:
[1] = tested on: Beet Armyworm (Spodoptera exigua, LAPHEG); test: Bioassays on Beet Armyworm (BAW), 128-well diet tray assay; assay type: in vivo; details: Spodoptera exigua; Table ABC: Biological Results; species BAW; read-out: BAW
Outline: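 Percent larval mortality, averaged across eight wells, scored after five to seven days at 25° C. under 14:10 light-dark. Each well held one to five second instars feeding on diet dosed at 50 μg/cm^2 with compound from 90:10 acetone-water, solvent dried off.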

[2] = tested on: Cabbage Looper (Trichoplusia ni, TRIPNI); test: Bioassays on Cabbage Looper (CL), 128-well diet tray assay; assay type: in vivo; details: Trichoplusia ni; Table ABC: Biological Results; species CL; read-out: CL
Outline: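 Second-instar larvae (1–5 per well) placed on artificial diet surface-treated with 50 μg/cm^2 test molecule applied in 90:10 acetone-water and dried. Held at 25° C., 14:10 light-dark, for five to seven days. Percent mortality scored per well and averaged over eight wells.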

`O=C(Nc1ccc(F)c(O)c1F)c1cc(NC(=O)[C@H]2[C@H](c3cc(Cl)cc(Cl)c3)C2(Cl)Cl)ccc1Cl` (relative stereo) [F1203, trans-2-chloro-5-(2,2-dichloro-3-(3,5-dichlorophenyl)cyclopropane-1-carboxamido)-N-(2,4-difluoro-3-hydroxyphenyl)benzamide] showed a pest or weed control at 50 µg/cm2 [1] of 0 to 50% and a pest or weed control at 50 µg/cm2 [2] of 50 to 100%.
For `O=C(Nc1ccccc1)c1cc(NC(=O)[C@H]2[C@H](c3ccc(F)c(Cl)c3)C2(Cl)Cl)cc(F)c1F` (relative stereo) [F1207, trans-5-(2,2-Dichloro-3-(3-chloro-4-fluorophenyl)cyclopropane-1-carboxamido)-2,3-difluoro-N-phenylbenzamide], the pest or weed control at 50 µg/cm2 [1] was 50 to 100% and the pest or weed control at 50 µg/cm2 [2] was 50 to 100%.
`O=C(Nc1ccc(F)cc1)c1cc(NC(=O)[C@H]2[C@H](c3ccc(F)c(Cl)c3)C2(Cl)Cl)cc(F)c1F` (relative stereo) [F1208, trans-5-(2,2-Dichloro-3-(3-chloro-4-fluorophenyl)cyclopropane-1-carboxamido)-2,3-difluoro-N-(4-fluorophenyl)benzamide] gave a pest or weed control at 50 µg/cm2 [1] of 50 to 100% and a pest or weed control at 50 µg/cm2 [2] of 50 to 100%.
Work on `O=C(Nc1ccc(F)cc1F)c1cc(NC(=O)[C@H]2[C@H](c3ccc(F)c(Cl)c3)C2(Cl)Cl)cc(F)c1F` (relative stereo) [F1209, trans-5-(2,2-Dichloro-3-(3-chloro-4-fluorophenyl)cyclopropane-1-carboxamido)-N-(2,4-difluorophenyl)-2,3-difluorobenzamide] yielded a pest or weed control at 50 µg/cm2 [1] of 50 to 100% and a pest or weed control at 50 µg/cm2 [2] of 50 to 100%.
Molecule `CC(=O)Nc1ccc(NC(=O)c2cc(NC(=O)[C@H]3[C@H](c4ccc(F)c(Cl)c4)C3(Cl)Cl)cc(F)c2F)cc1` (relative stereo) [F1210, trans-N-(4-Acetamidophenyl)-5-(2,2-dichloro-3-(3-chloro-4-fluorophenyl)cyclopropane-1-carboxamido)-2,3-difluorobenzamide] has a pest or weed control at 50 µg/cm2 [1] of 50 to 100% and a pest or weed control at 50 µg/cm2 [2] of 50 to 100%.
`CC(C)(C)OC(=O)N(C(=O)OC(C)(C)C)c1c(F)ccc(NC(=O)c2cc(NC(=O)[C@H]3[C@H](c4ccc(F)c(Cl)c4)C3(Cl)Cl)cc(F)c2F)c1F` (relative stereo) [F1211, trans-tert-Butyl-N-tert-butoxycarbonyl-N-[3-[[5-[[2,2-dichloro-3-(3-chloro-4-fluorophenyl)cyclopropanecarbonyl]amino]-2,3-difluorobenzoyl]amino]-2,6-difluorophenyl]carbamate] showed a pest or weed control at 50 µg/cm2 [1] of 50 to 100% and a pest or weed control at 50 µg/cm2 [2] of 50 to 100%.
`Cc1cc(NC(=O)[C@H]2[C@H](c3ccc(F)c(Cl)c3)C2(Cl)Cl)cc(C(=O)Nc2ccc(F)c(N)c2F)c1Cl` (relative stereo) [F1222, trans-N-(3-Amino-2,4-difluorophenyl)-2-chloro-5-(2,2-dichloro-3-(3-chloro-4-fluorophenyl)cyclopropane-1-carboxamido)-3-methylbenzamide] gave a pest or weed control at 50 µg/cm2 [1] of 50 to 100% and a pest or weed control at 50 µg/cm2 [2] of 50 to 100%.
`Cc1c(Cl)cc(NC(=O)[C@H]2[C@H](c3ccc(F)c(Cl)c3)C2(Cl)Cl)cc1C(=O)Nc1ccc(F)c(N)c1F` (relative stereo) [F1223, trans-N-(3-Amino-2,4-difluorophenyl)-3-chloro-5-(2,2-dichloro-3-(3-chloro-4-fluorophenyl)cyclopropane-1-carboxamido)-2-methylbenzamide] gave a pest or weed control at 50 µg/cm2 [1] of 50 to 100% and a pest or weed control at 50 µg/cm2 [2] of 50 to 100%.
Work on `Cc1cc(O)ccc1NC(=O)c1cc(NC(=O)[C@H]2[C@H](c3cc(Cl)cc(Cl)c3)C2(Cl)Cl)ccc1Cl` (relative stereo) [F1224, trans-2-chloro-5-(2,2-dichloro-3-(3,5-dichlorophenyl)cyclopropane-1-carboxamido)-N-(4-hydroxy-2-methylphenyl)benzamide] yielded a pest or weed control at 50 µg/cm2 [1] of 50 to 100% and a pest or weed control at 50 µg/cm2 [2] of 50 to 100%.
